Measured values: patent publication US4631292A, “1,3-dioxane derivatives, method of their synthesis and anti-peptic ulcer agent” (Kotobuki Seiyaku Co., Ltd., priority 1983, dated 1986)

What was measured:
[1] = system: aspirin-induced pylorus-ligated rats; test: Aspirin-induced ulcer in pylorus-ligated rats (method of S. Okabe); assay type: in vivo; conditions: oral dose 500 mg/kg
Experimental: (1) The effect of the compounds of the invention is examined by using aspirin-induced pylorus-ligated rats according to the methods of S. Okabe (Oyo-Yakuri 9 (1), 31-37 1975). The test compounds are given orally at a dose of 500 mg./kg.

ethanol induced ulcer = test: Ethanol induced ulcer (method of L. Robert, modified); assay type: in vivo; conditions: ethanol/HCl induced ulcer, rats; for ulcer index (mm): 30 min before ethanol, 1 hour after ethanol
Experimental: (2) The effect on ethanol induced ulcer is examined according to the method of L. Robert (Gastroenterology 77,433-443, 1979) with some modification. Rats are fasted for 24 hrs. and after 30 min. of the oral test drug administration, 1 ml. of 60% ethanol of 150 mM hydrochloric acid solution is given.
Exactly 1 hour later, the animals are sacrificed and the stomach is removed to examine their ulcer index.

CC(C)=CCCC1(C)OC(C)CC(C)O1 (centres unmarked) [Compound 11, 2-(4-methyl-3-pentenyl)-2-methyl-4,6-dimethyl-1,3-dioxane]
% inhibition [1]: 33.7%
ulcer index (mm) ± S.E. [1]: 14.5 ± 5.12 mm

CC1CCC(C(C)C)C2(C1)OCCC(C)O2 (centres unmarked) [Compound 6, spiro[2isopropyl-5-methyl-cyclohexane-1,2'-4'-methyl 1',3']dioxane]
% inhibition [1]: 53.9%
ulcer index (mm) ± S.E. [1]: 10.3 ± 4.16 mm

CC(C)=CCCC1OCCC(C)O1 (centres unmarked) [Compound 1, 2-(4-methyl-3-pentene)-6-methyl-1,3-dioxane]
% inhibition [1]: 50.6%
ulcer index (mm) ± S.E. [1]: 11.0 ± 2.98 mm

CC(C)=CCCC(C)CC1OCCC(C)O1 (centres unmarked) [Compound 2, 2-(2,6-dimethyl-5-heptene)-6-methyl-1,3-dioxane]
% inhibition [1]: 35.9%
ulcer index (mm) ± S.E. [1]: 27.8 ± 7.1 mm

CC(C)=CCCC1(C)OCCC(C)O1 (centres unmarked) [Compound 5, 2-(4-methyl-3-pentenyl)-2-methyl-4-methyl-1,3-dioxane]
% inhibition [1]: 88.1%
ulcer index (mm) ± S.E. [1]: 2.2 ± 0.8 mm
% inhibition (ethanol induced ulcer; oral dose 100 mg/kg): 59.7%
ulcer index (mm) (ethanol induced ulcer; oral dose 100 mg/kg): 27.1 ± 7.3 mm
% inhibition (ethanol induced ulcer; oral dose 500 mg/kg): 95.1%
ulcer index (mm) (ethanol induced ulcer; oral dose 500 mg/kg): 3.3 ± 1.2 mm
